The values below come from patent US8642640B2, “1-phenylpyrrole derivatives” (Exelixis, Inc., priority 2008, dated 2014).

pIC50: −log10 of the molar value.

The target in the test is T1, human mineralocorticoid receptor (hMR) (Homo sapiens, UniProt P08235).
T1 construct: expressed in transfected cells; host or cells: HEK293
T1 sequence (P08235 726-964 limits assumed): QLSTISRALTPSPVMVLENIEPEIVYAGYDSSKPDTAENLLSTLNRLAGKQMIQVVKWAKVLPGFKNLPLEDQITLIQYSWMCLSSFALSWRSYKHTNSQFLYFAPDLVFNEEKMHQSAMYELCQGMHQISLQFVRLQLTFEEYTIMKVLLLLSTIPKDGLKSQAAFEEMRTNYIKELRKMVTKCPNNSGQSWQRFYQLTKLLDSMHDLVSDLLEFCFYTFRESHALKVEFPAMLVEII
Kind of test: GAL4-hMR-LBD luciferase reporter assay in HEK293 cells with 1 nM aldosterone (Test Example 1).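 As to Imax: 0% is DMSO-only control and 100% is 1 nM aldosterone alone.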 In kind it is cell-based. Conditions: for pIC50: concentration showing Imax/2, HEK293, GAL4-hMR-LBD, 1 nM aldosterone, overnight, read-out: ICmax50; for Emax: HEK293, read-out: Imax. How it is done:
A plasmid pM-hMR-LBD expressing GAL4-hMR receptor, which has a ligand binding domain (LBD, corresponding to approximately 308 amino acids at the carboxy terminus) of human mineralocorticoid receptor (hMR, NM_000901) bonded to a DNA binding domain of yeast transcription factor GAL4 (corresponding to 147 amino acids at the amino terminus), was prepared. Reporter assay was conducted by using a reporter plasmid (such as plasmid pFR-Luc of […] CLONING SYSTEMS) including a luciferase gene, having a sequence (UAS sequence) which binds to the DNA binding domain of GAL4.
The plasmid pM-hMR-LBD and the reporter plasmid as obtained above were gene transferred into renal cell line HEK293 of human fetus by lipofection. On the next day, cells were collected by trypsin treatment, and dispensed with DMEM culture medium containing 5% of FBS treated by activated charcoal, to a white 96-well plate (Costar) with the amount of 95 microliter per well.
The test compounds were used as dissolved in dimethyl sulfoxide at a predetermined concentration, and the test compounds suitably diluted with culture media were added to the cells on the white 96-well plate so that the final concentration becomes 0.1%. […] After the addition, cultivation was carried out overnight.
On the next day, the culture media was removed, and then luciferase substrate (Wako Pure Chemical Industries, Ltd.) was prepared in accordance with the attached document and were added to each well by 50 microliters. Stirring was conducted for approximately 30 minutes, and the amount of luminescence was measured for each well by using Analyst (Molecular Devices), to obtain luciferase activity. A graph which plots relative luciferase activity values, when the luciferase activity value of Control group 1 was taken as 0% and the luciferase activity value of Control group 2 was taken as 100%, for each of the amount of the test compound addition group was made.
In general terms: In a reporter assay the amount or activity of a reporter protein is the signal.

As to `Cc1c(C(=O)Nc2ccc(S(N)(=O)=O)c(Cl)c2)cc(C[C@H](C)O)n1-c1ccc(F)cc1Cl` (single isomer, unassigned) [Example 49 - isomer A], the pIC50 was less than 6.00.
Turning to `Cc1c(C(=O)Nc2ccc(S(C)(=O)=O)cc2)cc(C[C@H](C)O)n1-c1ccc(F)cc1Cl` [Example 40, 1-(2-Chloro-4-fluorophenyl)-5-[(2S)-2-hydroxypropyl]-2-methyl-N-[4-(methylsulfonyl)phenyl]-1H-pyrrole-3-carboxamide], the Emax was 112% and the pIC50 is 7.59.
Take `Cc1c(C(=O)Nc2ccc(S(N)(=O)=O)c(Cl)c2)cc(C[C@H](C)O)n1-c1ccc(F)cc1C(F)(F)F` (single isomer, unassigned) [Example 12 - isomer B]: the pIC50 was less than 6.00.
On to `Cc1c(C(=O)Nc2ccc(S(C)(=O)=O)cc2)cc(C[C@H](C)O)n1-c1ccc(Cl)cc1OC(F)(F)F` [Example 42, 1-[4-Chloro-2-(trifluoromethoxy)phenyl]-5-[(2S)-2-hydroxypropyl]-2-methyl-N-[4-(methylsulfonyl)phenyl]-1H-pyrrole-3-carboxamide], for which the Emax was determined as 110% and the pIC50 was 8.32.
On to `Cc1c(C(=O)Nc2ccc(S(C)(=O)=O)cc2)cc(CCO)n1-c1ccc(Cl)cc1C(F)(F)F` (single isomer, unassigned) [Example 1 - isomer B, 1-[4-Chloro-2-(trifluoromethyl)phenyl]-5-(2-hydroxyethyl)-2-methyl-N-[4-(methylsulfonyl)phenyl]-1H-pyrrole-3-carboxamide], for which the pIC50 is less than 6.00.
Turning to `Cc1c(C(=O)Nc2ccc(S(N)(=O)=O)c(Cl)c2)cc(C[C@H](C)O)n1-c1ccc(F)cc1C(F)(F)F` (single isomer, unassigned) [Example 12 - isomer A], the Emax was 113% and the pIC50 was 8.51.
Consider `Cc1c(C(=O)Nc2ccc(S(C)(=O)=O)cc2)cc(C[C@H](C)O)n1-c1ccc(Cl)cc1C(F)(F)F` [Example 6, 1-[4-Chloro-2-(trifluoromethyl)phenyl]-5-[(2S)-2-hydroxypropyl]-2-methyl-N-[4-(methylsulfonyl)phenyl]-1H-pyrrole-3-carboxamide], for which the Emax was determined as 92% and the pIC50 was 8.21.
Take `Cc1c(C(=O)Nc2ccc(S(C)(=O)=O)cc2)cc(CCF)n1-c1ccc(F)cc1OC(F)F` [Example 54, 1-[2-(Difluoromethoxy)-4-fluorophenyl]-5-(2-fluoroethyl)-2-methyl-N-[4-(methylsulfonyl)phenyl]-1H-pyrrole-3-carboxamide]: the Emax came to 75% and the pIC50 is 7.85.
For `Cc1c(C(=O)Nc2ccc(S(C)(=O)=O)cc2)cc(C[C@H](C)O)n1-c1ccc(F)cc1OC(F)(F)F` [Example 16, 1-[4-Fluoro-2-(trifluoromethoxy)phenyl]-5-[(2S)-2-hydroxypropyl]-2-methyl-N-[4-(methylsulfonyl)phenyl]-1H-pyrrole-3-carboxamide] the same measures were 94% and 8.11.
In the case of `Cc1c(C(=O)Nc2ccc(S(C)(=O)=O)cc2)cc(CCO)n1-c1ccc(F)cc1Cl` [Example 3, 1-(2-Chloro-4-fluorophenyl)-5-(2-hydroxyethyl)-2-methyl-N-[4-(methylsulfonyl)phenyl]-1H-pyrrole-3-carboxamide], the Emax was found to be 109% and the pIC50 was 7.52.
Turning to `Cc1c(C(=O)Nc2ccc(S(C)(=O)=O)cc2)cc(C[C@H](C)O)n1-c1ccc(F)cc1Cl` (single isomer, unassigned) [Example 40 - isomer B], the pIC50 is less than 6.00.
Turning to `Cc1c(C(=O)Nc2ccc(S(C)(=O)=O)cc2)cc(C[C@H](C)O)n1-c1ccc(Cl)cc1Cl` (single isomer, unassigned) [Example 43 - isomer B], the pIC50 is less than 6.00.
For `Cc1c(C(=O)Nc2ccc(S(C)(=O)=O)cc2)cc(C[C@H](C)O)n1-c1ccc(Cl)cc1OC(F)(F)F` (single isomer, unassigned) [Example 42 - isomer A], the pIC50 is less than 6.00.
For the molecule `Cc1c(C(=O)Nc2ccc(S(C)(=O)=O)cc2)cc(C[C@H](C)O)n1-c1ccc(Cl)cc1C(F)(F)F` (single isomer, unassigned) [Example 6 - isomer B], the pIC50 is less than 6.00.
Regarding `Cc1c(C(=O)Nc2ccc(S(C)(=O)=O)cc2)cc(CCO)n1-c1ccc(Cl)cc1C(F)(F)F` [Example 1, 1-[4-Chloro-2-(trifluoromethyl)phenyl]-5-(2-hydroxyethyl)-2-methyl-N-[4-(methylsulfonyl)phenyl]-1H-pyrrole-3-carboxamide], the Emax came to 110% and the pIC50 was 7.96.
For `Cc1c(C(=O)Nc2ccc(S(C)(=O)=O)cc2)cc(CC(=O)N(C)C)n1-c1ccc(Cl)cc1C(F)(F)F` [Example 61, 1-[4-Chloro-2-(trifluoromethyl)phenyl]-5-[2-(dimethylamino)-2-oxoethyl]-2-methyl-N-[4-(methylsulfonyl)phenyl]-1H-pyrrole-3-carboxamide], the Emax came out at 115% and the pIC50 is 8.26.
`Cc1cc(NC(=O)c2cc(C[C@H](C)O)n(-c3ccc(F)cc3OC(F)F)c2C)ccc1S(C)(=O)=O` (single isomer, unassigned) [Example 22 - isomer A]: the Emax was 99% and the pIC50 is 8.21.
As to `Cc1c(C(=O)Nc2ccc(S(N)(=O)=O)c(Cl)c2)cc(C[C@H](C)O)n1-c1ccc(F)cc1C(F)(F)F` [Example 12, N-[4-(Aminosulfonyl)-3-chlorophenyl]-1-[4-fluoro-2-(trifluoromethyl)phenyl]-5-[(2S)-2-hydroxypropyl]-2-methyl-1H-pyrrole-3-carboxamide], the Emax turned out to be 108% and the pIC50 is 8.17.
Regarding `Cc1c(C(=O)Nc2ccc(S(N)(=O)=O)c(Cl)c2)cc(C[C@H](C)O)n1-c1ccc(F)cc1Cl` [Example 49, N-[4-(Aminosulfonyl)-3-chlorophenyl]-1-(2-chloro-4-fluorophenyl)-5-[(2S)-2-hydroxypropyl]-2-methyl-1H-pyrrole-3-carboxamide], the Emax came out at 96% and the pIC50 is 8.08.
Take `Cc1c(C(=O)Nc2ccc(S(C)(=O)=O)cc2)cc(C[C@H](C)O)n1-c1ccc(Cl)cc1Oc1ccc(F)cc1` (single isomer, unassigned) [Example 45 - isomer A]: the Emax was 105% and the pIC50 is 8.72.
For `Cc1c(C(=O)Nc2ccc(S(C)(=O)=O)cc2)cc(C[C@H](C)O)n1-c1ccc(Cl)cc1-c1ccc(F)cc1` (single isomer, unassigned) [Example 50 - isomer B], the Emax is 104% and the pIC50 is 8.92.
As to `CCc1c(C(=O)Nc2ccc(S(C)(=O)=O)cc2)cc(C[C@H](C)O)n1-c1ccc(F)cc1Cl` (single isomer, unassigned) [Example 44 - isomer A], the pIC50 is less than 6.00.
In the case of `Cc1c(C(=O)Nc2ccc(S(C)(=O)=O)cc2)cc(C[C@H](C)O)n1-c1ccc(F)cc1C(F)(F)F` [Example 5, 1-[4-Fluoro-2-(trifluoromethyl)phenyl]-5-[(2S)-2-hydroxypropyl]-2-methyl-N-[4-(methylsulfonyl)phenyl]-1H-pyrrole-3-carboxamide], the Emax came out at 125% and the pIC50 was 8.41.
